Source: patent EP0364581A1, “METHOD OF STERILIZING PLANT POLLEN” (VSESOJUZNY NAUCHNO-ISSLEDOVATELSKY INST. SELSKOKHOZYAISTV. …, priority 1988, dated 1989)
Like-named read-outs stand apart in the source and are kept apart here.

Tests used:
Experiment in all cases: field test of gametocidal activity (sterilisation of anthers)
Type in all cases: in vivo
[1] = test system: tetraploidem Roggen Sorte Belta; details: V. Periode, 1%ige wäßrige Emulsion, 6 kg/ha
From the text: (§1) Die gametozide Aktivität der erfindungsgemäßen Sterilisationsmittel war in Feldversuch in verschiedenen bodenklimatischen Zonen mit Teilstücken von 10 m^2 Größe in drei-- bis viermaliger Wiederholung nachgewiesen. Jedes Sterilisationsmittel wurde mindestens 5 Jahre lang geprüft.
(§2) Die Entwicklung der Perioden der Organogenese wird zytologisch überwacht. Die Behandlung von Pflanzen mit dem Sterilisationsmittel erfolgt am Anfang der fünften Periode der Organogenese nach Kupermann.
(§3) Mit dem Ahrenschieben verwirklicht man die Isolierung von Hauptähren und anderen Stockwerken in Pergamentbeuteln. Bei Weizen und Tritikale werden Einzelisolatoren verwendet. Bei Roggen schließt man je 1 Ähre von 5 bis 7 verschiedenen nebeneinander befindlichen Pflanzen in einen gemeinsamen Isolator ein. Bei Hirse wird jede Rispe getrennt isoliert. Der Sterilitätsprozentsatz (X) für Weizen, Roggen, Tritikale und Hirse wird nach der Formel [formula]
(§4) Samen von unbehandelten Kontrollpflanzen ermittelt.
(§5) Die Kornzahl in nicht isolierten Ähren von Kontrollpflanzen wird bedingt für 100% Ansetzen bei freier Bestäubung angenommen.
(§6) Um zuverlässige Angaben zu erhalten, verwendet man 20 bis 25 Isolatoren jeder Wiederholung für Weizen und Tritikale, 10 bis 15 Isolatoren jeder Wiederholung für Roggen und Hirse.
Pflanzen von tetraploidem Roggen Sorte Belta werden in der V. Periode der Organogenese (nach Kupermann) mit einer 1%igen wäßrigen Emulsion von Kaliumsalz der 2-Methyl-3-zy- klohexenkarbonsäure, 2-Methyl-3-zyklohexenkarbonsäuremethyl- ester, Phthalsäuredibutylester, Phthalsäuredihexylester, Phthalsäuredipropylester, Phthalsäurediallylester, Phthalsäurediisobutylester, Kaliumsalz der […] behandelt. Die Emulsion enthält 0,01 Masse% Dimethylsuloxid und 0,1 Masse% C12-C14-Kalziumalkylbenzolsulfonat. Der Verbrauch an Präparat beträgt 6 kg/ha. Als Kontrolle dienen Pflanzen behandelt mit einem Verdünner ohne Sterilisationsmittel.

Diploider Roggen Chulpan = details: for pest or weed control at 8000 g/ha / percent sterility at 8000 g/ha: read-out: Prozentsatz der Sterilität; for response vs control in vivo at 8000 g/ha: read-out: Prozentsätz des Ansetzens der Körner bei freier Bestäubung
From the text: as §1, §2, §3, §4, §5, §6
Pflanzen von diploidem Roggen Sorte Chulpan werden in der V. Periode der Organogenese (nach Kupermann) mit einer 1%igen wäßrigen Emulsion von Kaliumsalz der 2-Methyl-3-zy- klohexenkarbonsäure, 2-Methyl-3-zyklohexenkarbonsäuremethyl- ester, Kaliumsalz der Salizylsäure, Phthalsäurediallylester, Phthalsäurediisobutylester, Phthalsäuredipropylester, Phthalsäuredihexylester, Phthalsäuredibutylester. Die Emulsion enthält 0,01 Masse% Tetrahydrofuran und 0,1 Masse% C12-C14--Kalziumalkylbenzolsulfonat. Der Verbrauch an Präparat beträgt 8 kg/ha. Als Kuntrolle dienen Pflanzen, behandelt mit einem Verdünner ohne Sterilisationsmittel. […]

[2] = test system: Winterweizen Mironovskaya 808; details: treated in V. Periode der Organogenese, 2%ige wäßrige Emulsion, 20 kg/ha; for Prozentsatz des Ansetzens der Körner bei freier Bestäubung: control = 100
From the text: as §1, §2, §3, §4, §5, §6
Pflanzen des Winterweizens Sorte Mironovskaya 808 werden in der V. Periode der Organogenese durch Zerstäubung einer 2%igen wäßrigen Emulsion des Kaliumsalzes von 2-Methyl-3-zyklohexenkarbonsäure mit Hilfe einer Rückenspritze behandelt. Als Emulgiermittel setzt man 0,1 Masse% C12--C14 - Kalziumalkylbenzolsulfonat zu. Als Adjuvans führt man in die Emulsion 0,01 Masse% Dimethylformamid ein. Der Verbrauch an Präparat beträgt 20 kg/ha. Als Kontrolle dienen Pflanzen, behandelt mit einem Verdünner ohne Sterilisationsmittel. Die Ergebnisse sind in der Tabelle 1 angegeben. […] Periode der Organogenese erhalten.
Der Prozeß wird analog zu dem in Beispiel 1 beschriebenen durchgeführt. Als Sterilisationsmittel verwendet man eine 2%ige wäßrige Emulsion von 2-Methyl-3-zyklohexenkarbon- säuremethylester, Ammoniumsalz der 2-Methyl-[…], Phthalsäuredihexylester, Phthalsäuredibutylester, Phthalsäuredipropylester, Phthalsäurediisobutylester, Phthalsäurediäthylester. Die Ergebnisse sind in der Tabelle 1 angeführt. […]

[3] = test system: Hirse Sorte Mironovskoe 94; details: V. Periode, 1%ige wäßrige Emulsion, 10 kg/ha; for Prozentsatz des Ansetzens der Körner bei freier Bestäubung: control = 100
From the text: as §1, §2, §3, §4, §5, §6
Pflanzen der Hirse Sorte Mironovskoe 94 werden in der V. Periode der Organogenese (nach Kupermann) mit einer l%igen wäßrigen Emulsion von Kaliumsalz der 2-Methyl-3-zyklohexen- karbonsäure, 2-Methyl-3-zyklohexenkarbonsäuremethylester, Phthalsäuredihexylester, Phthalsäuredibutylester, Phthalsäuredipropylester, Natriumsalz der p-Hydroxybenzoesäure, Phthalsäurediäthylester, Phthalsäurediallylester behandelt. Die Emulsion enthält 0,01 Masse% Dimethylformamid und 0,1 Masse% C12-C14-Kalziumalkylbenzolsulfonat. Der Verbrauch an Präparat beträgt 10 kg/ha. Als Kontrolle dienen Pflanzen, behandelt mit einem Verdünner ohne Sterilisationsmittel. Die Prüfergebnisse sind in der Tabelle 17 angeführt. […] Periode der Organogenese erhalten.

[4] = Chulpan, V. Periode, 1%ige wäßrige Emulsion, 8 kg/ha
[5] = Chulpan, V. Periode, 1%ige wäßrige Emulsion, 8 kg/ha, control = 100

SMILES	Kornzahl der Ähre bei freier Bestäubung (Diploider Roggen Chulpan; [4])	Kornzahl der Ähre im Isolator (Diploider Roggen Chulpan; [4])	Kornzahl der Ähre bei freier Bestäubung [2]	Kornzahl der Ähre im Isolator [2]	Prozentsatz der Sterilität [2]	Prozentsatz des Ansetzens der Körner bei freier Bestäubung [2]	Kornzahl der Rispe bei freier Bestäubung [3]	Kornzahl der Rispe im Isolator [3]	Prozentsatz der Sterilität [3]	Prozentsatz des Ansetzens der Körner bei freier Bestäubung [3]	also measured
C=CCOC(=O)c1ccccc1C(=O)OCC=C [Beispiel 53, Phthalsäurediallylester]	–	–	–	–	–	–	–	–	–	–	Kornzahl der Ähre bei freier Bestäubung [1]: 41,6; Kornzahl der Ähre im Isolator [1]: 0,3; Prozentsatz der Sterilität [1]: 99,7%; Prozentsatz des Ansetzens bei freier Bestäubung ([1]; control = 100): 88,3%
CCCCOC(=O)c1ccccc1C(=O)OCCCC [Beispiel 67, Phthalsäuredibutylester]	50,5	0,0	–	–	–	–	–	–	–	–	pest or weed control at 8000 g/ha (Diploider Roggen Chulpan): 100%; response vs control in vivo at 8000 g/ha (Diploider Roggen Chulpan): 88.9%
CCCCOC(=O)c1ccccc1C(=O)OCCCC [Beispiel 5, Phthalsäuredibutylester]	–	–	31,7	0,0	100,0%	78,5%	–	–	–	–	–
C=CCOC(=O)c1ccccc1C(=O)OCC=C [Beispiel 96, Phthalsäurediallylester]	–	–	–	–	–	–	335,2	0,0	100,0%	88,3%	–
CCCCOC(=O)c1ccccc1C(=O)OCCCC [Beispiel 92, Phthalsäuredibutylester]	–	–	–	–	–	–	351,4	0,0	100,0%	92,6%	–
CC1C=CCCC1C(=O)[O-].[K+] (stereo not shown) [Beispiel 1, Kaliumsalzes von 2-Methyl-3-zyklohexenkarbonsäure]	–	–	38,6	3,2	91,5%	95,5%	–	–	–	–	–
CC1C=CCCC1C(=O)O.N (stereo not shown) [Beispiel 3, Ammoniumsalz der 2-Methyl-23-zyklohexen-karbonsäure]	–	–	39,2	0,6	98,4%	97,0%	–	–	–	–	–
CCOC(=O)c1ccccc1C(=O)OCC [Beispiel 8, Phthalsäurediäthylester]	–	–	39,8	0,5	98,7%	98,5%	–	–	–	–	–
CCCCCCOC(=O)c1ccccc1C(=O)OCCCCCC [Beispiel 91, Phthalsäuredihexylester]	–	–	–	–	–	–	311,5	0,0	100,0%	82,1%	–
CCCOC(=O)c1ccccc1C(=O)OCCC [Beispiel 93, Phthalsäuredipropylester]	–	–	–	–	–	–	308,7	0,0	100,0%	81,3%	–
CCCCCCOC(=O)c1ccccc1C(=O)OCCCCCC [Beispiel 66, Phthalsäuredihexylester]	57,0	0,0	–	–	–	–	–	–	–	–	pest or weed control at 8000 g/ha (Diploider Roggen Chulpan): 100%; response vs control in vivo at 8000 g/ha (Diploider Roggen Chulpan): 100%
O=C([O-])c1ccc(O)cc1.[Na+] [Beispiel 94, Natriumsalz der p-Hydroxybenzoesäure]	–	–	–	–	–	–	400,7	0,0	100,0%	105,6%	–
O=C(O)c1ccccc1O [Beispiel 62, Kaliumsalz der Salizylsäure]	50,4	10,4	–	–	–	–	–	–	–	–	pest or weed control at 8000 g/ha (Diploider Roggen Chulpan): 79.7%; response vs control in vivo at 8000 g/ha (Diploider Roggen Chulpan): 88.7%
COC(=O)C1CCC=CC1C (stereo not shown) [Beispiel 90, 2-Methyl-3-zyklohexenkarbonsäuremethylester]	–	–	–	–	–	–	327,6	0,0	100,0%	86,3%	–
CCOC(=O)c1ccccc1C(=O)OCC [Beispiel 95, Phthalsäurediäthylester]	–	–	–	–	–	–	352,5	0,0	100,0%	92,6%	–
CC1C=CCCC1C(=O)[O-].[K+] (stereo not shown) [Beispiel 89, Kaliumsalz der 2-Methyl-3-zyklohexen-karbonsäure]	–	–	–	–	–	–	304,3	0,0	100,0%	80,2%	–
COC(=O)C1CCC=CC1C (stereo not shown) [Beispiel 2, 2-Methyl-3-zyklohexenkarbon-säuremethylester]	–	–	30,1	0,0	100,0%	74,5%	–	–	–	–	–
CCCOC(=O)c1ccccc1C(=O)OCCC [Beispiel 65, Phthalsäuredipropylester]	53,2	0,0	–	–	–	–	–	–	–	–	pest or weed control at 8000 g/ha (Diploider Roggen Chulpan): 100%; response vs control in vivo at 8000 g/ha (Diploider Roggen Chulpan): 93.6%
CC(C)COC(=O)c1ccccc1C(=O)OCC(C)C [Beispiel 64, Phthalsäurediisobutylester]	52,2	0,5	–	–	–	–	–	–	–	–	pest or weed control at 8000 g/ha (Diploider Roggen Chulpan): 99%; response vs control in vivo at 8000 g/ha (Diploider Roggen Chulpan): 91.9%
COC(=O)C1CCC=CC1C (stereo not shown) [Beispiel 61, 2-Methyl-3-zyklohexenkarbonsäuremethyl-ester]	51,0	0,0	–	–	–	–	–	–	–	–	response vs control in vivo at 8000 g/ha (Diploider Roggen Chulpan; [5]): 89.8%; percent sterility at 8000 g/ha (Diploider Roggen Chulpan; [4]): 100%
C=CCOC(=O)c1ccccc1C(=O)OCC=C [Beispiel 63, Phthalsäurediallylester]	53,7	0,3	–	–	–	–	–	–	–	–	percent sterility at 8000 g/ha (Diploider Roggen Chulpan; [4]): 99.4%; response vs control in vivo at 8000 g/ha (Diploider Roggen Chulpan): 94.5%
CCCOC(=O)c1ccccc1C(=O)OCCC [Beispiel 6, Phthalsäuredipropylester]	–	–	39,0	5,0	86,8%	96,5%	–	–	–	–	–
CCCCCCOC(=O)c1ccccc1C(=O)OCCCCCC [Beispiel 4, Phthalsäuredihexylester]	–	–	38,2	4,2	88,9%	94,5%	–	–	–	–	–
CC(C)COC(=O)c1ccccc1C(=O)OCC(C)C [Beispiel 7, Phthalsäurediisobutylester]	–	–	37,7	0,2	99,5%	93,3%	–	–	–	–	–
CC1C=CCCC1C(=O)O (stereo not shown) [Beispiel 60, Kaliumsalz der 2-Methyl-3-zy-klohexenkarbonsäure]	55,2	0,0	–	–	–	–	–	–	–	–	response vs control in vivo at 8000 g/ha (Diploider Roggen Chulpan; [5]): 97.1%; percent sterility at 8000 g/ha (Diploider Roggen Chulpan; [4]): 100%
